Test results as given in patent US4868195A, “Novel enolamides, pharmaceutical compositions and methods of use thereof for activity as modulators of the arachidonic acid cascade” (Warner-Lambert Company, priority 1988, dated 1989).
Values joined by “and” are separate entries in the source; they are usually repeats but may differ in a detail not shown here. Equal values may be shown once.

Target: T1, human leukocyte 5-lipoxygenase (Homo sapiens, UniProt P09917)
T1 construct: endogenous in cells; host or cells: intact leukocytes isolated from human blood
T1 sequence (P09917 1-674): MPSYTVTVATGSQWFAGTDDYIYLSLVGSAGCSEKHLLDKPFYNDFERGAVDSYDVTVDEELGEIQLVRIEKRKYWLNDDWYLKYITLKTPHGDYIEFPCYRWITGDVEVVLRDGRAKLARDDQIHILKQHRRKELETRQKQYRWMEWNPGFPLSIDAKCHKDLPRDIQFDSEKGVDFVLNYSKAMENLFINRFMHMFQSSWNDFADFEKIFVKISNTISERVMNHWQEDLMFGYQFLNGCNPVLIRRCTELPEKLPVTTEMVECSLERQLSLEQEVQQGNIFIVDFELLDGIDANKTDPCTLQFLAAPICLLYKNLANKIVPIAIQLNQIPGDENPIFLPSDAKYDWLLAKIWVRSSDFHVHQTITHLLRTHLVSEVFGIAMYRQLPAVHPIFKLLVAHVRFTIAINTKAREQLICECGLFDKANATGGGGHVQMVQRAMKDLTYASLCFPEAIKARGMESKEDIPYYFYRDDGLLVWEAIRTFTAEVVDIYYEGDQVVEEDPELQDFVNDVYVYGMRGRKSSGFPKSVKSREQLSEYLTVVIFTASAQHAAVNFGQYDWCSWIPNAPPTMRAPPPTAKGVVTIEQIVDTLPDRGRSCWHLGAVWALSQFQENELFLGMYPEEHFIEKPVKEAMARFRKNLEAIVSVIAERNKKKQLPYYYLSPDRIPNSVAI
Assay: 5-lipoxygenase inhibition in human leukocytes, 5-HETE formation (5LOA; methods 5LOA1 and 5LOA2)
Assay type: cell-based
Settings: 5-HETE formation, human leukocytes; read-out: Concentration (M) for 50.0 % Inhibition, IC (5LOA)
Excerpt: To Evaluate the Effect of Each Compounds as a 5-Lipoxygenase Inhibitor in Comparison to Standard Reference Agents in Human Leukocytes (5LOA1)
The purpose of this assay is to evaluate the activity of each compound as an inhibitor of human leukocyte 5-lipoxygenase.
Arachidonic acid and calcium ionophore A23187 are obtained from Sigma (St. Louis, MO). Silica gel plates, GF are obtained from Analtech (Newark, DE). Arachidonic acid, (1-^14 C) and 5-HETE (^3 H), 5 (S)-hydroxy-6-trans,8,11,14-cis eicosatetraenoic acid, are obtained from New England Nuclear (Boston, MA). Six percent Dextran-70 in 0.9% NaCl is obtained from Cutter Labs (Berkeley, CA).
Preparation of Leukocytes
Fresh blood from normal adult men who had not received any drugs for at least the previous five days is obtained by the Community Research Clinic (WL/PD) using venipuncture and collected into heparinized vacuotainer tubes. To every 100 ml of pooled blood is added 25 ml of dextran solution (6% dextran -70 in 0.9% sodium chloride containing 3% dextrose) and this is mixed gently in a plastic cylinder. The mixture is left to stand at room temperature for at least 90 minutes. The upper layer which is rich in leukocytes and platelets is then carefully decanted into 50 ml plastic tubes and centrifuged at about 100×g for eight minutes in an IEC centrifuge and rotor number 269 (about 600 rpm). The supernatant fluid is discarded and the pellet is resuspended in 10 ml of 0.87% ammonium chloride for exactly two minutes. This procedure is to lyse completely contaminating red blood cells. Leukocytes are then separated by centrifugation for ten minutes. The pellet is washed three times by suspension in 20 ml PBS (sodium chloride, 7.1 g; Na2 HPO4, 1.15 g; KH2 PO4, 0.2 g, and KCl, 0.2 g/L) and centrifuged as before. The final pellet is suspended in PBS containing 0.87 mM CaCl2. Viability of the cells is then checked using trypan blue exclusion method and is found to be over 90%.
5-Lipoxygenase Enzyme Assay
Leukocyte cells in suspension (0.98 ml) are incubated with or without test compounds for five minutes at 37° C. in a shaking water bath. At this time a 17 μl mixture is prepared per 1 ml of cell suspension: 100 mM arachidonic acid, 1 μl, 0.05 μCi ^14 C-arachidonic acid in 5 μl; 1 mM calcium ionophore A23187, 10 μl (1). This mixture is added and the incubation continued for five minutes. The reaction is stopped by adding four volumes of absolute ethanol and the mixture is kept in ice for 30 minutes. The floculated precipitate is separated by centrifugation at about 37,000×g for 20 minutes (Beckman Instruments rotor number 40). The alcohol extract is taken to dryness under a stream of nitrogen and the residue is dissolved in 100-200 μl absolute ethanol. At the time any turbidity is removed by centrifugation. An aliquot (25-50 μl) is applied onto 20×20 cm silica gel TLC plate and developed using the following solvent system: diethyl ether, petroleum ether (2040° C.), acetic acid (50:50:1 v/v). Zones of 1 cm apart are scraped from the TLC plate and transferred to mini-vials. Methanol (0.5 ml) is added to dissolve the radioactivity adsorbed to the silica gel and scintillation fluid (H. P., Beckman), 5 ml is then added and vials are counted in a liquid scintillation counter. A sample of ^3 H-5-HETE is applied and used for the identification of the formed 5-HETE.
Total radioactivity in the test as well as the control samples are normalized and the amount of 5-HETE present is calculated accordingly.
IC50 values are defined as the concentrations of test agents which caused a 50% inhibition of the formation of 5-HETE as compared to control and are determined by inspection of the concentration-response curves.
5-Lipoxygenase Assay Using Isolated Human Leukocytes (5LOA2)
The formation of 5-HETE in human leukocytes is considered a measure of 5-lipoxygenase activity. The protocol is described in the following. […]

Compound | IC50
O=C(Nc1ccc(CCc2ccccc2)cc1)C1CS(=O)(=O)c2ccccc2C1=O (centres unmarked) [Example 16, 3,4-Dihydro-4-oxo-N-[(4-(2-phenyl)ethyl]-phenyl]-2H-1-benzothiopyran-3-carboxamide, 1,1-dioxide] | 1.77e-05 M
COc1ccc(CCc2ccc(NC(=O)C3=C(O)c4ccccc4S(=O)(=O)C3)cc2)cc1OC [Example 18, N-[4-[2-(3,4-Dimethoxyphenyl)ethyl]phenyl]-4-hydroxy-2H-1-benzothiopyran-3-carboxamide, 1,1-dioxide] | 1.35e-05 M
COc1ccc(CCc2ccc(NC(=O)C3CS(=O)(=O)c4ccccc4C3=O)cc2)cc1O (centres unmarked) [Example 27, 3,4-Dihydro-N-[4-[2-(3-hydroxy-4-methoxyphenyl)ethyl]phenyl]-4-oxo-2H-1-benzothiopyran-3-carboxamide, 1,1-dioxide] | 1.8e-05 M
COc1ccc(CCc2ccc(NC(=O)C3CS(=O)(=O)c4ccccc4C3=O)cc2)cc1 (centres unmarked) [Example 41] | 7e-06 M
O=C(Nc1ccc(CCc2ccc(-c3ccccc3)cc2)cc1)C1CS(=O)(=O)c2ccccc2C1=O (centres unmarked) [Example 46, N-[4-[2-([1,1'-biphenyl]-4-yl)ethyl]phenyl]-3,4-dihydro-4-oxo-2H-1-benzothiopyran-3-carboxamide, 1,1-dioxide] | 1.1e-05 M
CCCCOc1ccc(CCc2ccc(NC(=O)C3CS(=O)(=O)c4ccccc4C3=O)cc2)cc1 (centres unmarked) [Example 48] | 1.59e-05 M and 1.91e-05 M
O=C(Nc1ccc(CCc2ccc3ccccc3c2)cc1)C1=C(O)c2ccccc2S(=O)(=O)C1 [Example 51, 4-Hydroxy-N-[4-[2-(2-naphthalenyl)ethyl]phenyl]-2H-1-benzothiopyran-3-carboxamide, 1,1-dioxide] | 2.12e-06 M
Cc1ccc(CCc2ccc(NC(=O)C3CS(=O)(=O)c4ccccc4C3=O)cc2)cc1C (centres unmarked) [Example 53, N-[4-[2-(3,4-Dimethylphenyl)ethyl]phenyl]-3,4-dihydro-4-oxo-2H-1-benzothiopyran-3-carboxamide, 1,1-dioxide] | 3.8e-06 M
O=C(Nc1ccc(CCc2ccc(Cl)cc2)cc1)C1CS(=O)(=O)c2ccccc2C1=O (centres unmarked) [Example 54, N-[4-[2-(4-Chlorophenyl)ethyl]phenyl]-3,4-dihydro-4-oxo-2H-1-benzothiopyran-3-carboxamide, 1,1-dioxide] | 5.25e-06 M
O=C(Nc1ccc(CCc2c(F)c(F)c(F)c(F)c2F)cc1)C1=C(O)c2ccccc2S(=O)(=O)C1 [Example 64, N-[4-[2-(2,3,4,5,6-Pentafluorophenyl)ethyl]phenyl]-4-hydroxy-2H-1-benzothiopyran-3-carboxamide, 1,1-dioxide] | 1.19e-05 M
O=C(Nc1ccc(C=Cc2ccc([N+](=O)[O-])cc2)cc1)C1CS(=O)(=O)c2ccccc2C1=O (centres unmarked) [Example 67, 2H-1-Benzothiopyran-3-carboxamide, 3,4-dihydro-N-[4-[2-(4-nitrophenyl)ethenyl]phenyl]-4-oxo-, 1,1-dixide] | 1.17e-05 M
O=C(Nc1ccc(CCc2cccc3ccccc23)cc1)C1=C(O)c2ccccc2S(=O)(=O)C1 [Example 73, 2H-1-Benzothiopyran-3-carboxamide, 4-hydroxy-N-[4-[2-(1-naphthalenyl)ethyl]phenyl], 1,1-dioxide] | 4.09e-06 M and 8.2e-06 M
O=C(Nc1ccc(C=Cc2ccc(Cl)c(Cl)c2)cc1)C1=C(O)c2ccccc2S(=O)(=O)C1 [Example 74, 2H-1-Benzothiopyran-3-carboxamide, N-[4-[2-(3,4-dichlorophenyl)ethenyl]phenyl]-4-hydroxy-, 1,1-dioxide] | 9.3e-06 M
O=C(Nc1cccc(CCc2ccc(Cl)c(Cl)c2)c1)C1=C(O)c2ccccc2S(=O)(=O)C1 [Example 76, 2H-1-Benzothiopyran-3-carboxamide, N-[3-[2-(3,4-dichlorophenyl)ethyl]phenyl]-4-hydroxy-, 1,1-dioxide] | 1.1e-05 M
O=C(Nc1ccc(Cc2ccc(Cl)c(Cl)c2)cc1)C1=C(O)c2ccccc2S(=O)(=O)C1 [Example 78, 2H-1-Benzothiopyran-3-carboxamide, N-[4-[(3,4-dichlorophenyl)methyl]phenyl]-4-hydroxy-, 1,1-dioxide] | 1.06e-05 M
O=C(Nc1ccc(CCCc2ccc(Cl)c(Cl)c2)cc1)C1=C(O)c2ccccc2S(=O)(=O)C1 [Example 79, 2H-1-Benzothiopyran-3-carboxamide, N-[4-[3-(3,4-dichlorphenyl)propyl]phenyl]-4-hydroxy-, 1,1-dioxide] | 9.2e-06 M
O=C(Nc1ccccc1CCCc1ccc(Cl)c(Cl)c1)C1=C(O)c2ccccc2S(=O)(=O)C1 [Example 80, 2H-1-Benzothiopyran-3-carboxamide, N-[2-[3-(3,4-dichlorophenyl)propyl]phenyl]-4-hydroxy-, 1,1-dioxide] | 1.01e-05 M
COc1cc(CCc2ccc(NC(=O)C(=O)c3sc4ccccc4c3O)cc2)ccc1O [Example 142, Benzo[b]thiophene-2-acetamide, 3-hydroxy-N-[4-[2-(4-hydroxy-3-methoxyphenyl)ethyl]phenyl]-α-oxo-] | 6e-06 M
COc1ccc(CCc2ccc(NC(=O)c3sc4ccccc4c3O)cc2)cc1OC [Example 143, Benzo[b]thiophene-2-carboxamide, N-[4-[2-(3,4-dimethoxphenyl)ethyl]phenyl]-3-hydroxy] | 5.22e-06 M
O=C(Nc1cccc(CCc2ccc(Cl)c(Cl)c2)c1)c1sc2ccccc2c1O [Example 146, Benzo[b]thiophene-2-carboxamide, N-[3-[2-(3,4-dichlorophenyl)ethyl]phenyl]-3-hydroxy] | 3.96e-06 M

Same assay, conditions: Concentration 1.00 E -5 M

Compound | % Inhibition (5LOA) [%]
CCCCCCCCCCc1ccc(NC(=O)C2CS(=O)(=O)c3ccccc3C2=O)cc1 (centres unmarked) [Example 60, N-(4-Decylphenyl)-3,4-dihydro-4-oxo-2H-1-benzoothiopyran-3-carboxamide, 1,1-dioxide] | 25.2

Same assay, conditions: Concentration 2.00 E -5 M

Compound | % Inhibition (5LOA) [%]
CCCCCCCCCCc1ccc(NC(=O)C2CS(=O)(=O)c3ccccc3C2=O)cc1 (centres unmarked) [Example 60, N-(4-Decylphenyl)-3,4-dihydro-4-oxo-2H-1-benzoothiopyran-3-carboxamide, 1,1-dioxide] | 21.7

Same assay, conditions: Concentration 5.00 E -6 M

Compound | % Inhibition (5LOA) [%]
CCCCCCCCCCc1ccc(NC(=O)C2CS(=O)(=O)c3ccccc3C2=O)cc1 (centres unmarked) [Example 60, N-(4-Decylphenyl)-3,4-dihydro-4-oxo-2H-1-benzoothiopyran-3-carboxamide, 1,1-dioxide] | 7.9
